Data as given in patent publication US20140294978A1, “CATIONIC LIPID” (Kyowa Hakko Kirin Co., Ltd., priority 2013, published 2014).

How the values were obtained:
[1] = tested on: Factor VII; assay: In vivo drug efficacy: Factor VII protein level in plasma of mice after intravenous f7 siRNA preparations; conditions: Balb/c mice, 0.3 or 0.1 mg/kg in terms of siRNA, 48 hours after administration, f7 siRNA preparation, FIG. 4
Experimental: Each of the preparations obtained in Examples 10 and 11 (the compositions containing Compound I-6, I-1, I-7, or I-8, and the nucleic acid) was tested for evaluating the in vivo drug efficacy according to the following method. Incidentally, each preparation was used after it was diluted in accordance with the test.
After mice (Balb/c, obtained from CLEA Japan, Inc.) were housed and acclimated, each preparation was intravenously administered to mice at a dose of 0.3 or 0.1 mg/kg in terms of siRNA concentration. At 48 hours after the administration, blood was collected, and the collected blood was centrifuged at 8000 rpm for 8 minutes at 4° C. using a high speed refrigerated microcentrifuge (TOMY MX305, manufactured by Tomy Seiko Co., Ltd.). The Factor VII protein level in the thus obtained plasma sample was determined as follows. A BIOPHEN VII Kit (Cat. No. A221304, manufactured by ANIARA Company) was used, and according to the method described in the protocol attached to the kit, the absorbance was measured in a standard solution and in the plasma sample using ARVO (405 nm). On the basis of the obtained absorbance, a calibration curve was prepared, and the Factor VII protein level in the plasma was calculated. Incidentally, the number of mice in each group was set to 3.

[2] = Average particle diameter of the lipid nanoparticles in each preparation (Zetasizer Nano ZS); assay type: physicochemical
Excerpt: Each sample was weighed so that the ratio of each of Compounds I-1 to I-5/1,2-dimyristoyl-sn-glycero-3-phosphoethanolamine-N-(methoxy(polyethylene glycol)-2000) sodium salt (PEG-DMPE Na, N-(carbonylmethoxypolyethylene glycol 2000)-1,2-dimyristoyl-sn-glycero-3-phosphoethanolamine sodium salt, manufactured by NOF Corporation)/disteazoylphosphatidyl choline (DSPC, 1,2-distearoyl-sn-glycero-3-phosphocholine, manufactured by NOF Corporation)/choiestercl (manufactured by NOF Corporation)=8.947/1.078/5.707/13.698 mmol/L, and dissolved in 90 vol % ethanol, whereby a solution containing the constituent components of a lipid membrane was prepared. Separately, apo-b siRNA in distilled water (24 mg/mL) was diluted with a Tris-EDTA buffer solution (200 mM Tris-HCl, 20 mM EDTA, manufactured by Invitrogen Co., Ltd.) and a 20 mM citric acid buffer solution (pH 5.0), whereby a 1.5 mg/mL apo-b siRNA aqueous solution (2 mM Tris-EDTA buffer solution, 20 mM citric acid buffer solution, pH 5.0) was prepared.
The obtained lipid solution was heated to 37° C., and a 500 μL portion was transferred to a container for preparing a preparation. The obtained apo-b siRNA aqueous solution (500 μL) was then added thereto while stirring. Then, a 20 mM citric acid buffer solution (containing 300 mM NaCl, pH 6.0, 1000 μL) was added to the obtained lipid nucleic acid mixed suspension (1000 μL) while stirring, and further, DPBS (manufactured by Invitrogen Co., Ltd., 3310 μL) was added dropwise thereto, whereby a crude preparation was obtained. The obtained crude preparation was concentrated by using Amicon Ultra (manufactured by Millipore Co., Ltd.), and further, the solvent was replaced with DPBS, and the resulting mixture was filtered through a 0.2-μm filter (manufactured by Toyo Roshi Kaisha, Ltd.) in a laminar flow cabinet. Further, the siRNA concentration in the obtained preparation was measured, and the preparation was diluted with DPBS so that the siRNA concentration was 0.3 mg/mL, whereby preparations (compositions containing any of Compounds I-1 to I-5, and the nucleic acid) were obtained.
The average particle diameter of the lipid nanoparticles in each preparation was measured using a particle diameter measurement device (Zetasizer Nano ZS, manufactured by Malvern).
Preparations were obtained in the same manner as in Example 9 except that Compounds I-1 to I-5 were changed to DLin-KC2-DMA synthesized by a modified method of the method described in WO2010/042877 and the compounds obtained in Reference Examples 5 to 7 (Compounds VII-1 to VII-3).
The average particle diameter of the lipid nanoparticles in each preparation was measured using a particle diameter measurement device.
Each sample was weighed so that the ratio of Compound I-6/PEG-DMPE Na (manufactured by NOF Corporation)/DSPC (manufactured by NOF Corporation)/cholesterol (manufactured by NOF Corporation)=3.532/0.270/1.156/2.401 mmol/L, and dissolved in 100 volt ethanol, whereby a solution containing the constituent components of a lipid membrane was prepared.
The obtained lipid solution was heated to 37° C., and an 800 μL portion was transferred to a container for preparing a preparation. The obtained f7 siRNA aqueous solution (800 μL) was then added thereto while stirring. Then, a 20 mM citric acid buffer solution (containing 300 mM NaCl, pH 6.0, 1600 μL) was added to the obtained lipid nucleic acid mixed suspension (1600 μL) while stirring, and further, DPBS (manufactured by Invitrogen Co., Ltd., […]) was added dropwise thereto, whereby a crude preparation was obtained. The obtained crude preparation was concentrated by using Amicon Ultra (manufactured by Millipore Co., Ltd.), and further, the solvent was replaced with DPBS, and the resulting mixture was filtered through a 0.45-μm filter (manufactured by Toyo Roshi Kaisha, Ltd.) in a laminar flow cabinet. […]

[3] = tested on: apo-b gene mRNA in human liver cancer-derived cell line HepG2; assay: Expression ratio of apo-b mRNA after introduction of preparations into HepG2 cells; assay type: cell-based; conditions: preparation with apo-b siRNA, nucleic acid 1 to 30 nM, 24 hours, FIG. 1
Excerpt: Each of the preparations obtained in Example 9 (the compositions containing any of Compounds I-1, and I-3 to I-5, and the nucleic acid) and the preparations obtained in Comparative Example 1 (the compositions containing any of DLin-KC2-DMA and Compounds VII-1 to VII-3, and the nucleic acid) was introduced into cells of a human liver cancer-derived cell line HepG2 (HB-8065) by the following method.
Each preparation diluted with Opti-MEM (GIBCO Co., Ltd., 31985) so that the final concentration of the nucleic acid was 1 to 30 nM was dispensed in a 96-well culture plate at 20 μL/well. […]
By using the obtained cDNA as a template and also using a universal probe library (Roche Applied Science, Inc., 04683633001) as the probe and ABI7900HT Fast (manufactured by ABI, Inc.), a PCR reaction was performed according to the method described in the protocol attached thereto, so that the apo-b gene and D-glyceraldehyde-3-phosphate dehydrogenase (hereinafter, represented by “gapdh”) gene, which is a constitutively expressed gene, were subjected to the PCR reaction. Then, the amount of the amplified mRNA was measured for each gene, and aquasi-quantitative value of the apo-b mRNA was calculated using the amount of the amplified gapdh mRNA as the internal control. […]

[4] = preparations of Examples 10 and 11: cationic lipid/PEG-DMPE Na/DSPC/cholesterol with f7 siRNA
[5] = preparations of Comparative Example 1, made as in Example 9, with apo-b siRNA
[6] = preparations of Example 9: cationic lipid/PEG-DMPE Na/DSPC/cholesterol with apo-b siRNA

SMILES | Particle diameter of Preparation obtained [2, 4] [nm] | Particle diameter of Preparation obtained [2, 5] [nm] | Particle diameter of Preparation obtained [2, 6] [nm] | Factor VII protein level in the plasma (expression of the Factor VII gene) [1] | other results
CCCCC/C=C\C/C=C\CCCCCCCCN(CCCCCCCC/C=C\C/C=C\CCCCC)C(=O)OCCCN1CCCCC1 [Compound I-7, 3-(Piperidin-1-yl)propyl di((9Z,12Z)-octadeca-9,12-dienyl)carbamate] | 131.8 |  |  | strongly suppressed | 
CCCCCC/C=C\CCCCCCCCN(CCCCCCCC/C=C\CCCCCC)C(=O)OCCCN(C)C [Compound I-3, 3-(Dimethylamino)propyl di((Z)-hexadec-9-enyl)carbamate] |  |  | 150.0 |  | 
CCCCC/C=C\C/C=C\CCCCCCCCC1(CCCCCCCC/C=C\C/C=C\CCCCC)OCC(CCN(C)C)O1 (stereo not drawn) [DLin-KC2-DMA, 2,2-dilinoleyl-4-(2-dimethylaminoethyl)-[1,3]-dioxolane, reference compound] |  | 159.8 |  |  | 
CCCCC/C=C\C/C=C\CCCCCCCCN(CCCCCCCC/C=C\C/C=C\CCCCC)C(=O)OCCCN1CCCC1 [Compound I-8, 3-(Pyrrolidin-1-yl)propyl di((9Z,12Z)-octadeca-9,2-dienyl)carbamate] | 121.6 |  |  | strongly suppressed | 
CCCCCCCC/C=C\CCCCCCCCN(CCCCCCCC/C=C\CCCCCCCC)C(=O)OCCCN(C)C [Compound I-2, 3-(Dimethylamino)propyl di((Z)-octadec-9-enyl)carbamate] |  |  | 135.8 |  | 
CCCCC/C=C\C/C=C\CCCCCCCCN(CCCCCCCC/C=C\C/C=C\CCCCC)C(=O)OCCCN(C)C [Compound I-1, 3-(Dimethylamino)propyl di((9Z,12Z)-octadeca-9,12-dienyl)carbamate] | 118.9 |  | 151.8 | strongly suppressed | 
CCCCC/C=C\C/C=C\CCCCCCCCCCN(CCCCCCCCCC/C=C\C/C=C\CCCCC)C(=O)OCCCN(C)C [Compound I-4, 3-(Dimethylamino)propyl di((11Z,14Z)-icosa-11,14-dienyl)carbamate] |  |  | 159.0 |  | 
CCCCC/C=C\C/C=C\CCCCCCCCN(CCCCCCCC/C=C\C/C=C\CCCCC)C(=O)OCCN(C)C [Compound I-5, 2-(Dimethylamino)ethyl di((9Z,12Z)-octadeca-9,2-dienyl)carbamate] |  |  | 137.0 |  | 
CCCCC/C=C\C/C=C\CCCCCCCCN(CCCCCCCC/C=C\C/C=C\CCCCC)C(=O)OCCC1CCCN1C (stereo not drawn) [Compound I-6, 2-(1-Methylpyrrolidin-2-yl)ethyl di((9Z,12Z)-octadeca-9,12-dienyl)carbamate] | 121.1 |  |  | strongly suppressed | 

The next lines start with results.

Particle diameter of Preparation obtained [2, 4] [nm] | Particle diameter of Preparation obtained [2, 5] [nm] | Particle diameter of Preparation obtained [2, 6] [nm] | SMILES | Factor VII protein level in the plasma (expression of the Factor VII gene) [1] | other results
 | 176.6 |  | CCCCC/C=C\C/C=C\CCCCCCCCN(CCCCCCCC/C=C\C/C=C\CCCCC)C(=O)CCCCN [Compound VII-1, 5-Amino-N,N-di((9Z,12Z)-octadeca-9,12-dienyl)pentanamide, reference compound] |  | 
 | 160.1 |  | CCCCC/C=C\C/C=C\CCCCCCCCN(CCCCCCCC/C=C\C/C=C\CCCCC)C(=O)CCCCN(C)C [Compound VII-2, 5-(Dimethylamino)-N,N-di((9Z,12Z)-octadeca-9,12-dienyl)pentanamide, reference compound] |  | expression of the apo-b gene mRNA [3]: did not suppress the expression of the apo-b gene mRNA
 | 177.7 |  | CCCCC/C=C\C/C=C\CCCCCCCCN(CCCCCCCC/C=C\C/C=C\CCCCC)C(=O)OCCCN [Compound VII-3, 3-Aminopropyl di((9Z,12Z)-octadeca-9,12-dienyl)carbamate, reference compound] |  | 
